Data published in PubChem BioAssay (NCI).
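GI50 = concentration required for 50% inhibition of growth. At the TGI there is no net growth.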

Experiments:
Assay in all cases: NCI anticancer screen, dose series, 384-well format
T-47D breast = tested on: T-47D breast
HL-60(TB) leukemia = tested on: HL-60(TB) leukemia
SN12C renal = tested on: SN12C renal
SF-295 CNS = tested on: SF-295 CNS
MALME-3M melanoma = tested on: MALME-3M melanoma
A498 renal = tested on: A498 renal
SK-MEL-5 melanoma = tested on: SK-MEL-5 melanoma
HCC-2998 colon = tested on: HCC-2998 colon
ACHN renal = tested on: ACHN renal
OVCAR-3 ovarian = tested on: OVCAR-3 ovarian
SF-539 CNS = tested on: SF-539 CNS
MCF7 breast = tested on: MCF7 breast
HCT-116 colon = tested on: HCT-116 colon

O=C(NC[C@H](O)CN1CCc2ccccc2C1)c1cc(NC2COC2)ncn1
GI50 (T-47D breast): 4.97 µM | TGI (T-47D breast): > 100 µM | GI50 (HL-60(TB) leukemia): > 28.3 µM | TGI (HL-60(TB) leukemia): > 100 µM | GI50 (SN12C renal): > 100 µM | TGI (SN12C renal): > 100 µM | GI50 (SF-295 CNS): > 100 µM | TGI (SF-295 CNS): > 100 µM | GI50 (MALME-3M melanoma): > 100 µM | TGI (MALME-3M melanoma): > 100 µM | GI50 (A498 renal): > 100 µM | TGI (A498 renal): > 100 µM | GI50 (SK-MEL-5 melanoma): > 100 µM | TGI (SK-MEL-5 melanoma): > 100 µM | GI50 (HCC-2998 colon): > 100 µM | TGI (HCC-2998 colon): > 100 µM | GI50 (ACHN renal): > 100 µM | TGI (ACHN renal): > 100 µM | GI50 (OVCAR-3 ovarian): > 69.1 µM | TGI (OVCAR-3 ovarian): > 100 µM | GI50 (SF-539 CNS): > 100 µM | TGI (SF-539 CNS): > 100 µM | GI50 (MCF7 breast): > 41.5 µM | TGI (MCF7 breast): > 100 µM | GI50 (HCT-116 colon): > 100 µM | TGI (HCT-116 colon): > 100 µM

CN1CCN(c2ccc(Nc3cc(-c4cccc(-n5ccc6cc(C7CC7)cc(F)c6c5=O)c4CO)cn(C)c3=O)nc2)CC1
GI50 (T-47D breast): 1.75 µM | TGI (T-47D breast): 3.71 µM | GI50 (HL-60(TB) leukemia): 1.84 µM | TGI (HL-60(TB) leukemia): 3.25 µM | GI50 (SN12C renal): 1.76 µM | TGI (SN12C renal): 3.63 µM | GI50 (SF-295 CNS): 2.21 µM | TGI (SF-295 CNS): 4.93 µM | GI50 (MALME-3M melanoma): 1.86 µM | TGI (MALME-3M melanoma): 3.27 µM | GI50 (A498 renal): 2.05 µM | TGI (A498 renal): 3.96 µM | GI50 (SK-MEL-5 melanoma): 1.62 µM | TGI (SK-MEL-5 melanoma): 3.02 µM | GI50 (HCC-2998 colon): 2.09 µM | TGI (HCC-2998 colon): 5.3 µM | GI50 (ACHN renal): 1.6 µM | TGI (ACHN renal): 3.01 µM | GI50 (OVCAR-3 ovarian): 1.79 µM | TGI (OVCAR-3 ovarian): 3.28 µM | GI50 (SF-539 CNS): 1.71 µM | TGI (SF-539 CNS): 3.14 µM | GI50 (MCF7 breast): 1.79 µM | TGI (MCF7 breast): 4.37 µM | GI50 (HCT-116 colon): 1.71 µM | TGI (HCT-116 colon): 3.26 µM
